From ChEMBL document CHEMBL1201862, “PubChem BioAssay data set” (2004)
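Five concentrations, 48 hours, 96-well plates. GI50 = concentration required for 50% inhibition of growth.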 Active and inactive are the calls of the source. Rule as the data show it: active = GI50 up to about 1.1 µM and inactive = higher.

Columns and labels:
Assay in all cases: NCI tumour cell line growth inhibition, 48 h
CAKI-1 = tested on: CAKI-1
TK-10 = tested on: TK-10
SK-MEL-28 = tested on: SK-MEL-28
OVCAR-5 = tested on: OVCAR-5
MDA-MB-231 = tested on: MDA-MB-231
UO-31 = tested on: UO-31
HOP-62 = tested on: HOP-62
U-251 = tested on: U-251
SK-MEL-2 = tested on: SK-MEL-2
CCRF-CEM = tested on: CCRF-CEM
SN12C = tested on: SN12C
HL-60 = tested on: HL-60
K562 = tested on: K562
NCI-H522 = tested on: NCI-H522
SF-295 = tested on: SF-295
NCI-H226 = tested on: NCI-H226
EKVX = tested on: EKVX
IGROV-1 = tested on: IGROV-1
HOP-92 = tested on: HOP-92

| Structure (SMILES) | GI50 (CAKI-1) | GI50 (TK-10) | GI50 (SK-MEL-28) | GI50 (OVCAR-5) | GI50 (MDA-MB-231) | GI50 (UO-31) | GI50 (HOP-62) | GI50 (U-251) | GI50 (SK-MEL-2) | GI50 (CCRF-CEM) | GI50 (SN12C) | GI50 (HL-60) | GI50 (K562) | GI50 (NCI-H522) | GI50 (SF-295) | GI50 (NCI-H226) | GI50 (EKVX) | GI50 (IGROV-1) | GI50 (HOP-92) |
| --- | --- | --- | --- | --- | --- | --- | --- | --- | --- | --- | --- | --- | --- | --- | --- | --- | --- | --- | --- |
| Oc1c(C(O)(c2ccccc2)c2ccc3ccccc3c2O)ccc2ccccc12 | 15 µM (inactive) | 13 µM (inactive) | 14.7 µM (inactive) | 17.8 µM (inactive) | 13.6 µM (inactive) | 11.2 µM (inactive) | 15 µM (inactive) | 9.31 µM (inactive) | 12.4 µM (inactive) | 0.597 µM (active) | 7.74 µM (inactive) | 3.52 µM (inactive) | 2.88 µM (inactive) | 4.01 µM (inactive) | 16.5 µM (inactive) | 18.8 µM (inactive) | 11.4 µM (inactive) | 7.36 µM (inactive) | 9.1 µM (inactive) |
| CCOc1ccc(Nc2nc(N)nc(N)c2N)cc1 | 28.6 µM (inactive) | > 100 µM (inactive) | > 100 µM (inactive) | 29.6 µM (inactive) | 31.8 µM (inactive) | 11 µM (inactive) | 24.7 µM (inactive) | 24.1 µM (inactive) | 44.9 µM (inactive) | 20.2 µM (inactive) | > 10 µM (inactive) | 39.1 µM (inactive) | 13.6 µM (inactive) | 26 µM (inactive) | 17.9 µM (inactive) | 42.2 µM (inactive) | > 100 µM (inactive) | 11.6 µM (inactive) | 50.9 µM (inactive) |
| CC(C)OC(=O)c1ccc(NCC2=CC(=O)C=CC2=O)cc1 | 3.43 µM (inactive) | 15.3 µM (inactive) | 18.3 µM (inactive) | 19.4 µM (inactive) | 10.2 µM (inactive) | 9.91 µM (inactive) | > 95.5 µM (inactive) | 16 µM (inactive) | 17 µM (inactive) | 2.21 µM (inactive) | 12.9 µM (inactive) | 2.2 µM (inactive) | 2.35 µM (inactive) | 1.69 µM (inactive) | 28.2 µM (inactive) | 30 µM (inactive) | 17.3 µM (inactive) | 13.5 µM (inactive) | 2.48 µM (inactive) |
| O=C(O)CCc1nc2c(n1-c1ccccc1)C(=O)c1ccccc1C2=O | > 100 µM (inactive) | > 100 µM (inactive) | > 100 µM (inactive) | > 100 µM (inactive) | > 100 µM (inactive) | > 100 µM (inactive) | > 100 µM (inactive) | > 100 µM (inactive) | 95.9 µM (inactive) | > 100 µM (inactive) | > 100 µM (inactive) | > 100 µM (inactive) | > 100 µM (inactive) | 38.5 µM (inactive) | > 100 µM (inactive) | > 100 µM (inactive) | > 100 µM (inactive) | > 100 µM (inactive) | 0.0226 µM (active) |
| O=C1CSC(c2ccccc2[N+](=O)[O-])N1c1ccc(-n2c(-c3ccccc3)nc3ccccc3c2=O)cc1 (stereo unspecified) | 67.9 µM (inactive) | 29.6 µM (inactive) | > 100 µM (inactive) | > 100 µM (inactive) | 46.3 µM (inactive) | 13.9 µM (inactive) | 21.3 µM (inactive) | 17.7 µM (inactive) | 55.8 µM (inactive) | 41.1 µM (inactive) | > 100 µM (inactive) | > 100 µM (inactive) | 79.6 µM (inactive) | 22.4 µM (inactive) | 24.5 µM (inactive) | 28.4 µM (inactive) | 47.4 µM (inactive) | 46.1 µM (inactive) | 27 µM (inactive) |
| Cc1cccc2c(NCCN(C)C)c3cccc(C(=O)NCCN(C)C)c3nc12 | 0.187 µM (active) | 0.445 µM (active) | 0.199 µM (active) | 1.27 µM (inactive) | 0.0904 µM (active) | 0.326 µM (active) | 0.258 µM (active) | 0.139 µM (active) | 0.54 µM (active) | 0.156 µM (active) | 0.0603 µM (active) | 0.24 µM (active) | 0.0278 µM (active) | < 0.0486 µM (active) | 0.105 µM (active) | 0.728 µM (active) | 0.383 µM (active) | 0.171 µM (active) | 0.218 µM (active) |
| CCCC(=O)N(C(=O)CCC)C1=C(Cl)C(=O)c2ccccc2C1=O | 2.24 µM (inactive) | 4.1 µM (inactive) | 3.72 µM (inactive) | 7.67 µM (inactive) | 18.2 µM (inactive) | 1.62 µM (inactive) | 11.9 µM (inactive) | 4.08 µM (inactive) | 4.42 µM (inactive) | 2.09 µM (inactive) | 13.3 µM (inactive) | 0.574 µM (active) | 2.18 µM (inactive) | 0.611 µM (active) | 15.8 µM (inactive) | 8.38 µM (inactive) | 5.36 µM (inactive) | 5.66 µM (inactive) | 4.01 µM (inactive) |
| CN1CCN(CN2C(=O)C3C4C=CC(C3C2=O)C2C(=O)N(CN3CCN(C)CC3)C(=O)C42)CC1 (stereo unspecified) | 38.1 µM (inactive) | > 70.3 µM (inactive) | > 42.9 µM (inactive) | > 100 µM (inactive) | > 73.6 µM (inactive) | > 87.3 µM (inactive) | > 54.1 µM (inactive) | > 54.5 µM (inactive) | > 100 µM (inactive) | 28.6 µM (inactive) | > 58.9 µM (inactive) | 20.5 µM (inactive) | 45.7 µM (inactive) | > 42.1 µM (inactive) | > 82.4 µM (inactive) | > 87.1 µM (inactive) | > 100 µM (inactive) | 50.6 µM (inactive) | > 100 µM (inactive) |
| COC(=O)C1C(O)CCC2CN3CCc4c([nH]c5cccc(OC)c45)C3CC21 (stereo unspecified) | > 100 µM (inactive) | > 100 µM (inactive) | > 100 µM (inactive) | > 100 µM (inactive) | > 100 µM (inactive) | 76 µM (inactive) | > 100 µM (inactive) | > 100 µM (inactive) | > 100 µM (inactive) | > 100 µM (inactive) | > 100 µM (inactive) | > 100 µM (inactive) | > 100 µM (inactive) | > 100 µM (inactive) | > 100 µM (inactive) | > 100 µM (inactive) | > 100 µM (inactive) | > 100 µM (inactive) | > 100 µM (inactive) |
| CN(C)c1ccc(/C=C2\C[C@H]3[C@@H]4CCc5cc(OCCN6CCCC6)ccc5[C@H]4CC[C@]3(C)[C@H]2O)cc1 | 13.9 µM (inactive) | 5.5 µM (inactive) | 5.11 µM (inactive) | 14.7 µM (inactive) | 7.14 µM (inactive) | 5.65 µM (inactive) | 15.1 µM (inactive) | 3.75 µM (inactive) | 19.3 µM (inactive) | 2.46 µM (inactive) | 16.9 µM (inactive) | 18.9 µM (inactive) | 4.74 µM (inactive) | 4.26 µM (inactive) | 13.1 µM (inactive) | 18.7 µM (inactive) | 15 µM (inactive) | 16.1 µM (inactive) | 6.07 µM (inactive) |
| NC(=O)CC1(O)C=CC(=O)C=C1 | 41.9 µM (inactive) | > 100 µM (inactive) | > 100 µM (inactive) | > 100 µM (inactive) | > 100 µM (inactive) | > 100 µM (inactive) | > 100 µM (inactive) | > 100 µM (inactive) | > 100 µM (inactive) | > 100 µM (inactive) | > 100 µM (inactive) | > 100 µM (inactive) | > 100 µM (inactive) | 26.8 µM (inactive) | > 100 µM (inactive) | > 100 µM (inactive) | > 100 µM (inactive) | > 100 µM (inactive) | > 100 µM (inactive) |
| COc1cc(C2c3cc4c(cc3OC(O)C2C)OCO4)cc(OC)c1OC (stereo unspecified) | 0.612 µM (active) | 34.9 µM (inactive) | 0.863 µM (active) | 4.78 µM (inactive) | 0.532 µM (active) | 0.695 µM (active) | 0.306 µM (active) | 0.33 µM (active) | 0.486 µM (active) | 0.229 µM (active) | 0.446 µM (active) | 0.172 µM (active) | 0.142 µM (active) | 0.207 µM (active) | 0.324 µM (active) | 0.708 µM (active) | 1.53 µM (inactive) | 0.553 µM (active) | 0.562 µM (active) |
| Cc1ncc([N+](=O)[O-])n1CCNC(=O)CCC(=O)NCCCn1ccnc1[N+](=O)[O-] | > 100 µM (inactive) | > 100 µM (inactive) | > 100 µM (inactive) | > 100 µM (inactive) | > 100 µM (inactive) | > 100 µM (inactive) | > 100 µM (inactive) | > 100 µM (inactive) | > 100 µM (inactive) | > 100 µM (inactive) | > 100 µM (inactive) | > 100 µM (inactive) | > 100 µM (inactive) | > 100 µM (inactive) | > 100 µM (inactive) | > 100 µM (inactive) | > 100 µM (inactive) | > 100 µM (inactive) | 54 µM (inactive) |
| O=C(O)[C@H]1NC[C@@H]2ON=C(Br)[C@@H]21 | > 100 µM (inactive) | > 100 µM (inactive) | > 100 µM (inactive) | > 100 µM (inactive) | > 100 µM (inactive) | > 100 µM (inactive) | > 100 µM (inactive) | > 100 µM (inactive) | > 100 µM (inactive) | > 100 µM (inactive) | > 100 µM (inactive) | > 100 µM (inactive) | > 100 µM (inactive) | > 100 µM (inactive) | > 100 µM (inactive) | > 100 µM (inactive) | > 100 µM (inactive) | > 100 µM (inactive) | > 100 µM (inactive) |
